Assay [1] has as its target ACE (Homo sapiens, UniProt P12821). Description: ACE inhibitory activity of IPP per unit weight relative to VPP. It counts as biochemical.
In assay [2] the test system is spontaneously hypertensive rat (SHR). The note with it: J. Dairy Sci. 78:1253-1257(1995); cited from earlier work.

ACE, sequence (P12821 30-1306, species assumed): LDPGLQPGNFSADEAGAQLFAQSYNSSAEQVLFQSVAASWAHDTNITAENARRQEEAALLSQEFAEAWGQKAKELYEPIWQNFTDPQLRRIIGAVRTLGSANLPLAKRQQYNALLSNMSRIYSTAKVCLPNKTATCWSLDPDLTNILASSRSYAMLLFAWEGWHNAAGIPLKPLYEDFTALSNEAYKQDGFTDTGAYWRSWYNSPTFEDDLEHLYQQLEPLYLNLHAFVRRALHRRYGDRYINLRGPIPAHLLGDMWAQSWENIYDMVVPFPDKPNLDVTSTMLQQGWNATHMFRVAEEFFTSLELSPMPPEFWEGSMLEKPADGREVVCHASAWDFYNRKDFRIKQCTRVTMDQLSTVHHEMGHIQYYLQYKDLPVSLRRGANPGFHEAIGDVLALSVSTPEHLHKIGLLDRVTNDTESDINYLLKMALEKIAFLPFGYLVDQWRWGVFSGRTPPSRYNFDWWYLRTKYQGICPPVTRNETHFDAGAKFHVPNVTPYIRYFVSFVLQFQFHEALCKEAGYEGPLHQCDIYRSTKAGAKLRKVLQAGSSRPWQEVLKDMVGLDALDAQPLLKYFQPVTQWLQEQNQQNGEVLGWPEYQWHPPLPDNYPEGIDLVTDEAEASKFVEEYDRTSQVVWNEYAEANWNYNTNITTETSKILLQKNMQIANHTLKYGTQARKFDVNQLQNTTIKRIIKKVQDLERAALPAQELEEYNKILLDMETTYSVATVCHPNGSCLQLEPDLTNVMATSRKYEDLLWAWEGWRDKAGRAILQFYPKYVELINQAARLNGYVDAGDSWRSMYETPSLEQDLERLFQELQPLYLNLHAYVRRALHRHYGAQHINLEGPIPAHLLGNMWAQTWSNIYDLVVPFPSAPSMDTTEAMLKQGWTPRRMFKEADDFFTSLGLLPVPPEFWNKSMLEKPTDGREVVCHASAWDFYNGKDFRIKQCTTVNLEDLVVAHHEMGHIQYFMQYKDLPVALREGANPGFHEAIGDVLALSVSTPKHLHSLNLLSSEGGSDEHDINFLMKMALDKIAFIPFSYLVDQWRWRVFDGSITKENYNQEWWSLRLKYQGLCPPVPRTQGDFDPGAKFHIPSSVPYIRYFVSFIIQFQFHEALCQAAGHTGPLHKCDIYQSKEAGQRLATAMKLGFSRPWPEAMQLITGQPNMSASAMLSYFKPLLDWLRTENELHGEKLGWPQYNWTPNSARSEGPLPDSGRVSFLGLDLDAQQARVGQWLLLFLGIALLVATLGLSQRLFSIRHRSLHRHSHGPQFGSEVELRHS

As for Ile-Pro-Pro [IPP], in assay [1], the “ACE inhibitory activity per unit weight relative to VPP” value is 1.7 times that of VPP. Further, in assay [2], the Hypotensive effect result was “strong hypotensive effect”.
Val-Pro-Pro [VPP]: in assay [2], the Hypotensive effect result is “strong hypotensive effect”.

Values taken from patent US7282354B2, “Method for producing fermented milk product” (Calpis Co., Ltd., priority 2000, dated 2007).
